For one assay, the target named is T1, human TLR 8 protein (Homo sapiens, UniProt Q9NR97).
T1 construct: expressed in transfected cells; host or cells: HEK293 (HEK-Blue hTLR8)
T1 sequence (Q9NR97 27-1041): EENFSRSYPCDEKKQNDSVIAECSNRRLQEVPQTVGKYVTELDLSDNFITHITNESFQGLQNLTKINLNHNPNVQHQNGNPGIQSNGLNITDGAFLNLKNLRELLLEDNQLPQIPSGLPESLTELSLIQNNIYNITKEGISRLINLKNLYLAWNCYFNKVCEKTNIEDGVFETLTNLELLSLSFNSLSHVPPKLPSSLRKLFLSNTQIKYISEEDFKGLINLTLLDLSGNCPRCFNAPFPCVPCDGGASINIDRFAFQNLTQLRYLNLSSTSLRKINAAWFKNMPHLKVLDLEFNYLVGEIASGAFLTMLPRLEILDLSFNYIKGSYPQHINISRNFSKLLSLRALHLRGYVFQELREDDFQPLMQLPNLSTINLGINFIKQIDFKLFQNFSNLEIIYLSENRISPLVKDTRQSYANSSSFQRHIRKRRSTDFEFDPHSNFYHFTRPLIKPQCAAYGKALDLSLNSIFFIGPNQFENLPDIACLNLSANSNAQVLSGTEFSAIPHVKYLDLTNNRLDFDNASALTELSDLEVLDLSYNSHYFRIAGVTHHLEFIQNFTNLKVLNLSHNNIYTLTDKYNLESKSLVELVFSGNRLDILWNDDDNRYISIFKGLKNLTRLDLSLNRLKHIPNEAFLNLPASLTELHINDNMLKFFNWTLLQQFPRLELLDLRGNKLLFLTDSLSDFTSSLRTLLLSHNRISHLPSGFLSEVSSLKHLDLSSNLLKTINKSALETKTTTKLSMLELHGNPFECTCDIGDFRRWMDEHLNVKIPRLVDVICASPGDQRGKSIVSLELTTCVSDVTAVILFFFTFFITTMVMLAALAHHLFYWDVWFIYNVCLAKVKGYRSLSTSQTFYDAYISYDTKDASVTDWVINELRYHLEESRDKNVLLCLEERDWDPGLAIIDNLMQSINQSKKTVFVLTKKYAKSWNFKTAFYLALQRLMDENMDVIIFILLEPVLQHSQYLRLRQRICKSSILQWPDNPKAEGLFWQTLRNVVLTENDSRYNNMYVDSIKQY
Put plainly: TLR8 stimulation determined using HEK-Blue Detection. The assay is classed as cell-based. The following applies: HEK-Blue hTLR8 cells, 16 hr, relative to Resiquimod or Motolimod maximum. The source says: TLR8 Stimulation Determined Using HEK-Blue Detection
This assay was designed for studying the stimulation of human TLR 8 protein in HEK-Blue hTLR8 tool cell line by monitoring the activation of NF-1B. HEK-Blue hTLR8 cells were obtained by co-transfection of the hTLR8 gene and an optimized secreted embryonic alkaline phosphatase (SEAP) reporter gene into HEK293 cells. The SEAP reporter gene was placed under the control of the IFN-β minimal promoter fused to five NF-κB and AP-1-binding sites. Stimulation with a TLR 8 ligand activates NF-κB and AP-1 which induce the expression of SEAP. Levels of SEAP can be easily determined with HEK-Blue Detection, a cell culture medium that allows for real-time detection of SEAP. HEK-Blue Detection contains all the nutrients necessary for cell growth and a specific SEAP color substrate. The hydrolysis of the substrate by SEAP produces a purple/blue color that can be measured with a spectrophotometer.
When growing to 50-80% confluency, HEK-Blue hTLR7/8 cells were plated into 96-well plate (costar 3599) at a density of 40000 cells/well. Then compounds were added with serial dilutions over 10 points with a 1 nM-10 uM final concentration range in 0.1% DMSO/HEK-Blue Detection. The plates were then incubated for 16 hr at 37° C. in 5% CO2. The optical density at 620-655 nm was read on BMG PHERAstar FSX instrument. The EC50 for each compound was determined by calculating the percentages of the maximum activation identified with Resiquimod or Motolimod.

Another assay has as its target T2, human TLR7 (Homo sapiens, UniProt Q9NYK1).
T2 sequence (Q9NYK1 27-1049): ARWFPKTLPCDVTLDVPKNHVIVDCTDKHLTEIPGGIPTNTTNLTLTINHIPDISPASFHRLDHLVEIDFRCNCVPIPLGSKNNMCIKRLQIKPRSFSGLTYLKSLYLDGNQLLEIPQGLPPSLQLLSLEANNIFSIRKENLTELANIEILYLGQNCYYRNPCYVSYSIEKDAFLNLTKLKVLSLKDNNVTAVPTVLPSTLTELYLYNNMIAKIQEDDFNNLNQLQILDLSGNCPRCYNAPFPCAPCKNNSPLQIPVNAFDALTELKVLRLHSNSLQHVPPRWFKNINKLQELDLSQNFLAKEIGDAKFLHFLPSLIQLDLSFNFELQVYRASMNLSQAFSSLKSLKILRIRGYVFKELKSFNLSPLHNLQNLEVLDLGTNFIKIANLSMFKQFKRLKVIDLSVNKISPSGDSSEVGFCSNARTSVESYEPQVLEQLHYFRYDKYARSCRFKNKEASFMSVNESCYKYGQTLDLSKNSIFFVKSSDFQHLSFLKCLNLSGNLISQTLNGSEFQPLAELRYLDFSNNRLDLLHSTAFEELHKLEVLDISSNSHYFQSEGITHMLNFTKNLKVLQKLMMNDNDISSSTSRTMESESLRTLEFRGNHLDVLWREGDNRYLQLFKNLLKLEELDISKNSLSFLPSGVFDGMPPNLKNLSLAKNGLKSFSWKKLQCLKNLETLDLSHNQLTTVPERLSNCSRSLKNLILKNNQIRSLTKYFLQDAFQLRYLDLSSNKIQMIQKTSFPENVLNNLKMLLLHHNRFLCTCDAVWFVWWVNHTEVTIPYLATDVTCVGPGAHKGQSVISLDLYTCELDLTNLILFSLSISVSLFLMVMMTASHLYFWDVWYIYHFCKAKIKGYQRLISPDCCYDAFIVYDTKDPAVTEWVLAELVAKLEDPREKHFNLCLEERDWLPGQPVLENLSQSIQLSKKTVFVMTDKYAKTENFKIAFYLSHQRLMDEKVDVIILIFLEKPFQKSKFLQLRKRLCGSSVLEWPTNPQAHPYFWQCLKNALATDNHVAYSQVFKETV
Briefly: TLR7 stimulation determined using HEK-Blue Detection. The assay is classed as cell-based. Details: expressed in transfected cells; host or cells: HEK293 (HEK-Blue hTLR7). The following applies: HEK-Blue hTLR7 cells, HEK-Blue Detection (A77-A124), 16 hr, relative to Resiquimod maximum. The source says:
TLR7 Stimulation Determined Using HEK-Blue Detection
This assay was designed for studying the stimulation of human TLR7 protein in HELK-Blue hTLR7 tool cell line by monitoring the activation of NF-κB. HEK-Blue hTLR7 cells were obtained by co-transfection of the hTLR7 gene and an optimized secreted embryonic alkaline phosphatase (SLAP) reporter gene into HEK293 cells. The SLAP reporter gene was placed under the control of the IFN-β minimal promoter fused to five NF-κB and AP-1-binding sites. Stimulation with a TLR7 ligand activates NF-κB and AP-1 which induce the expression of SLAP. Levels of SLAP can be easily determined with HEK-Blue Detection, a cell culture medium that allows for real-time detection of SLAP. HLK-Blue Detection contains all the nutrients necessary for cell growth and a specific SLAP color substrate. The hydrolysis of the substrate by SLAP produces a purple/blue color that can be measured with a spectrophotometer.
When growing to 50-80%0 confluency, HLK-Blue hTLR7 cells were plated into 96-well plate (costar 3599) at a density of 40000 cells/well. Then compounds were added with serial dilutions over 10 points with a 0.04 nM-10 μM final concentration range in 0.1% DMSO/BLK-Blue Detection. The plates were then incubated for 16 hr at 37° C. in […] and vortex for 30s before measurement. The optical density at 620-655 nm was read on BMG PHLRAstar FSX instrument. The EC50 for each compound was determined by calculating the percentages of the maximum activation identified with Resiquimod.

As for `CCCC(CCO)Oc1nc(N)c2ncc(Cc3ccc(OCCNC)c(F)c3)n2n1` (single isomer, unassigned) [Compound A106, (S or R)-3-((4-amino-7-(3-fluoro-4-(2-(methylamino)ethoxy)benzyl)imidazo[2,1-f][1,2,4]triazin-2-yl)oxy)hexan-1-ol], the EC50 at human TLR 8 protein is 12 nM; at human TLR7 it was 1.6 nM.
As for `CCCC(CCO)Oc1nc(N)c2ncc(Cc3ccc(OCCNC)cc3C)n2n1` (single isomer, unassigned) [Compound A107, (R or S)-3-((4-amino-7-(2-methyl-4-(2-(methylamino)ethoxy)benzyl)imidazo[2,1-f][1,2,4]triazin-2-yl)oxy)hexan-1-ol], the results for the EC50 on human TLR 8 protein and at human TLR7 were 16 nM and 1.3 nM, respectively.
In the same order, the values of `CCCC(CCO)Oc1nc(N)c2ncc(Cc3ccc(OCCNC)cc3Cl)n2n1` (single isomer, unassigned) [Compound A108, (R or S)-3-((4-amino-7-(2-chloro-4-(2-(methylamino)ethoxy)benzyl)imidazo[2,1-f][1,2,4]triazin-2-yl)oxy)hexan-1-ol] are 21 nM and 0.8 nM.
Taken in the same sequence, the figures for `CCCC(CCO)Oc1nc(N)c2ncc(Cc3ccc(OC(C)CNC)nc3)n2n1` (single isomer, unassigned) [Compound A109, (3R or S)-3-((4-amino-7-((6-((1-(methylamino)propan-2-yl)oxy)pyridin-3-yl)methyl)imidazo [2,1-f][1,2,4]triazin-2-yl)oxy)hexan-1-ol] were 47 nM and 3.4 nM.
In the same order, the values of `CCCC(CCO)Oc1nc(N)c2ncc(Cc3ccc(CCCNC)cc3)n2n1` (single isomer, unassigned) [Compound A110, (R or S)-3-((4-amino-7-(4-(3-(methylamino)propyl)benzyl)imidazo[2,1-f][1,2,4]triazin-2-yl)oxy)hexan-1-ol] are 65 nM and 4 nM.
Consider `CCCC(CCO)Oc1nc(N)c2ncc(Cc3ccc(OCCNC)c(F)c3F)n2n1` (single isomer, unassigned) [Compound A111, (R or S)-3-((4-amino-7-(2,3-difluoro-4-(2-(methylamino)ethoxy)benzyl)imidazo[2,1-f][1,2,4]triazin-2-yl)oxy)hexan-1-ol], for which the EC50 was found to be 47 nM on human TLR 8 protein and 1.9 nM at human TLR7.
In the same order, the values of `CCCC(CCO)Oc1nc(N)c2ncc(Cc3cc(F)c(OCCNC)cc3F)n2n1` (single isomer, unassigned) [Compound A112, (R or S)-3-((4-amino-7-(2,5-difluoro-4-(2-(methylamino)ethoxy)benzyl)imidazo[2,1-f][1,2,4]triazin-2-yl)oxy)hexan-1-ol] are 9 nM and 0.93 nM.
Consider `CCCC(CCO)Oc1nc(N)c2ncc(Cc3cc(OCCNC)ccc3OC)n2n1` (single isomer, unassigned) [Compound A113, (R or S)-3-((4-amino-7-(2-methoxy-5-(2-(methylamino)ethoxy)benzyl)imidazo[2,1-f][1,2,4]triazin-2-yl)oxy)hexan-1-ol], for which the half-maximal effective concentration (EC50) was 98 nM on human TLR 8 protein and 24 nM on human TLR7.
Taken in the same sequence, the figures for `CCCC(CCO)Oc1nc(N)c2ncc(Cc3cc(F)c(OCCNC)c(F)c3)n2n1` (single isomer, unassigned) [Compound A114, (R or S)-3-((4-amino-7-(3,5-difluoro-4-(2-(methylamino)ethoxy)benzyl)imidazo[2,1-f][1,2,4]triazin-2-yl)oxy)hexan-1-ol] were 6.8 nM and 1 nM.
In the same order, the values of `CCCC(CCO)Oc1nc(N)c2ncc(Cc3ccc(OCCNC)cc3F)n2n1` (single isomer, unassigned) [Compound A115, (R or S)-3-((4-amino-7-(2-fluoro-4-(2-(methylamino)ethoxy)benzyl)imidazo[2,1-f][1,2,4]triazin-2-yl)oxy)hexan-1-ol] are 7 nM and 0.72 nM.
